Marks after values point to notes of the source that are not given here.
What was measured:
[1] = Organoleptic evaluation of beef extract solution, paired comparison test; parameters: key to Kokumi taste vs control (mark): Δ: Equal or inferior in the kokumi taste to the control; O: Stronger in the kokumi taste than the control; OO: Remarkably stronger in the kokumi taste than the control; conditions: for Kokumi taste vs control (mark): 14 panelists
Protocol: In order to verify a taste improving function for a commercially available beef extract (manufactured by Bordon), the three glycopeptides and peptide were each added in an amount of 10 ppb by weight to a beef extract solution formulated according to the mixing ratio shown in the following Table 6, and then an organoleptic evaluation was performed in the same manner as in Example 1. Each resulting solution was subjected to organoleptic evaluation by 16 taste panelists according to a paired comparison test, using the non-added beef extract solution as the control. […]
In order to verify a taste improving function for a commercially available beef extract (manufactured by Bordon) in the same manner as in the organoleptic evaluation of Example 1, the glycopeptides and peptides listed in the following Table 15, were each added in an amount of 10 ppb, 1 ppm, or 100 ppm by weight to beef extract solutions formulated according to the mixing ratio shown in Table 6 above. Each resulting solution was subjected to organoleptic evaluation by 14 taste panelists according to a paired comparison test, using the non-added beef extract solution as the control.

[2] = Organoleptic evaluation of cheese sauce, paired comparison test; conditions: added 1 ppm by weight; vs non-added; n = 14
Protocol: In order to verify a taste improving function for cheese sauce, the three glycopeptides and peptide were each added in an amount of 1 ppm by weight to a cheese sauce prepared according to the formulation shown in the following Table 4, and then an organoleptic evaluation was performed in the same manner as in Example 1. Each of the sauces added with one of the three glycopeptides and peptide was subjected to organoleptic evaluation by 14 taste panelists according to a paired comparison test, using non-added cheese sauce as the control.
In order to verify the taste improving function of the liquid comprising enzymatically decomposed wheat gluten, that is, a seasoning containing the three glycopeptides and peptide, for cheese sauce, the seasoning comprising enzymatically decomposed wheat gluten (that is, the powdered seasoning of Example 1 formed from the decolorized liquid from which the activated carbon had been removed) was added in an amount of 0.05% by weight to a cheese sauce prepared according to the formulation shown in Table 4, and then an organoleptic evaluation was performed in the same manner as in Example 1. Organoleptic evaluation was carried out by 20 taste panelists according to a paired comparison test, using the non-added cheese sauce as the control.

[3] = Organoleptic evaluation of chicken consommé soup, paired comparison test by taste panelists; conditions: for Panelists choosing the sample as the one with a stronger kokumi taste: vs non-added soup, n = 16
Protocol: 2 g of a commercially available chicken consommé soup (manufactured by Ajinomoto Co., Inc.) was added to 100 mL of water to prepare a chicken consommé soup, and then each of the fractions was added to the chicken consommé soup. […] These two fractions were each again fractionated by reversed phase HPLC (“Carbon-500” manufactured by Tosoh Corporation). The following conditions were used to obtain two peaks at 44.8 minutes and 46.6 minutes. For the fractionation, two solvents A and B were used. Solvent A was a 0.05% by volume trifluoroacetic acid (TFA) aqueous solution, and Solvent B was a 0.05% by volume TFA 50% by volume acetonitrile aqueous solution. The column was equilibrated with Solvent A. After injecting a sample, the proportion of Solvent B was increased linearly to 100% in 167 min. The fractionated two peaks were analyzed with an LC-MS/MS (liquid chromatography-tandem mass spectrometry), to confirm that the former peak had fragments, that is, [M+H]^+=m/z 1640, 1494, 1478, 1362, 1332, 1316, 1200, 1184, 1038, 876, 819, 673, and 470, and that the latter peak had fragments, that is, [M+H]^+=m/z 1478, 1346, 1332, 1316, 1200, 1184, 1038, 876, 819, 673, and 470. Further, the former and latter peaks were analyzed by some known methods of analysis such as NMR, a peptide sequencer, an enzymatic decomposition treatment, and the like (R.Takahashi, “Biochemical Experiment Methods 23: Method for Studying Glycoprotein Sugar Chain,” published by Gakkai Shuppan Center, 1989), to confirm that the peaks were due to the glycopeptides having the structures represented by Sequence formulas (I) (SEQ ID NO: 1) and (II) (SEQ ID NO: 1), respectively.
In order to confirm the kokumi taste imparting function and the threshold value of the glycopeptides and the peptide represented by Sequence formulas (I) to (III) (SEQ ID NO: 1) (hereinafter, the glycopeptides and the peptide represented by Sequence formulas (I) to (III) may also be referred to as Glycopeptide I, Glycopeptide II, and Peptide III, respectively), Glycopeptide I and Glycopeptide II were each added to a chicken consommé soup in such that the concentration thereof would be 0.1 ppb to 1.0 ppm by weight upon eating, and Peptide III was added to the chicken consommé soup in such that the concentration thereof would be 0.1 ppb to 100 ppm by weight upon eating. As a control, a non-added chicken consommé soup was prepared. For each of the three glycopeptides and peptide, organoleptic evaluation was carried out by 16 taste panelists according to a paired comparison test (the panelists should choose one with a stronger kokumi taste). In the above organoleptic evaluation, there was a significant difference in the effect caused by adding Glycopeptide I or II or Peptide III in the case where the concentration thereof was 1 ppb by weight or more upon eating. Therefore, the lower limit of the threshold value was set to 1 ppb by weight.

[4] = Organoleptic evaluation of Mentsuyu, paired comparison test; conditions: added 1 ppb by weight; vs non-added; n = 16
From the text: In order to verify a taste improving function for “Mentsuyu” (a soup for Japanese noodle) in the same manner as in the organoleptic evaluation of Example 1, the three glycopeptides and peptide were each added in an amount of 1 ppb by weight to Mentsuyu prepared according to the formulation shown in the following Table 2. Each resulting solution was subjected to organoleptic evaluation by 16 taste panelists according to a paired comparison test, using non-added Mentsuyu as the control.
In order to verify the taste improving function of a liquid comprising enzymatically decomposed wheat gluten, that is, a seasoning containing the three glycopeptides and peptide, for Mentsuyu, the seasoning comprising enzymatically decomposed wheat gluten (that is, the decolorized liquid of Example 1 from which the activated carbon had been removed) was added in an amount of 0.1% by volume to Mentsuyu prepared according to the formulation shown in Table 2, and then an organoleptic evaluation was performed in the same manner as in Example 1. Organoleptic evaluation was carried out by 20 taste panelists according to a paired comparison test, using the non-added Mentsuyu as the control.

## Asn-His
[1]; added 1 ppm by weight
  Kokumi taste vs control (mark): ◯
[1]; added 10 ppb by weight
  Kokumi taste vs control (mark): ◯
[1]; added 100 ppm by weight
  Kokumi taste vs control (mark): ◯◯

## Asn-His-Thr
[1]; added 1 ppm by weight
  Kokumi taste vs control (mark): ◯◯
[1]; added 10 ppb by weight
  Kokumi taste vs control (mark): ◯
[1]; added 100 ppm by weight
  Kokumi taste vs control (mark): ◯◯

## His-Ser [reference compound]
[1]; added 1 ppm by weight
  Kokumi taste vs control (mark): Δ
[1]; added 10 ppb by weight
  Kokumi taste vs control (mark): Δ
[1]; added 100 ppm by weight
  Kokumi taste vs control (mark): Δ

## Val-Asn [reference compound]
[1]; added 1 ppm by weight
  Kokumi taste vs control (mark): Δ
[1]; added 10 ppb by weight
  Kokumi taste vs control (mark): Δ
[1]; added 100 ppm by weight
  Kokumi taste vs control (mark): Δ

## Val-Asn-His
[1]; added 1 ppm by weight
  Kokumi taste vs control (mark): ◯◯
[1]; added 10 ppb by weight
  Kokumi taste vs control (mark): ◯
[1]; added 100 ppm by weight
  Kokumi taste vs control (mark): ◯◯

## Val-Asn-His-Thr (VNHT; printed: Val-Asn-His-Thr) [Peptide III]
[2]
  Stronger kokumi taste (panelists): 12*
[1]; added 1 ppm by weight
  Kokumi taste vs control (mark): ◯◯
[1]; added 10 ppb by weight
  Kokumi taste vs control (mark): ◯◯
[1]; added 10 ppb by weight, vs non-added, n = 16
  Stronger kokumi taste (panelists): 13*
[1]; added 100 ppm by weight
  Kokumi taste vs control (mark): ◯◯
[3]; amount added 0.1 ppb
  Panelists choosing the sample as the one with a stronger kokumi taste: 9
[3]; amount added 1.0 ppb
  Panelists choosing the sample as the one with a stronger kokumi taste: 13*
[3]; amount added 1.0 ppm
  Panelists choosing the sample as the one with a stronger kokumi taste: 16***
[3]; amount added 10 ppb
  Panelists choosing the sample as the one with a stronger kokumi taste: 14**
[3]; amount added 100 ppm
  Panelists choosing the sample as the one with a stronger kokumi taste: 16***
[3]; concentration upon eating giving a significant difference vs non-added soup
  Lower limit of the threshold value (kokumi taste imparting function): 1 ppb by weight
[4]
  Stronger kokumi taste (panelists): 13*

## Val-Gln [reference compound]
[1]; added 1 ppm by weight
  Kokumi taste vs control (mark): Δ
[1]; added 10 ppb by weight
  Kokumi taste vs control (mark): Δ
[1]; added 100 ppm by weight
  Kokumi taste vs control (mark): Δ

— US7615244B2, “Glycopeptide and peptide having a kokumi taste imparting function, and method of imparting the kokumi taste to foods” (Ajinomoto Co., Inc., priority 2003, dated 2009)
